For orientation: IC50 means the concentration that inhibits the measured activity by half.

Here are results for 24 compounds from US9096531B2, “Fused imidazole derivative” (TOA EIYO LTD., priority 2010, dated 2015).

The target of experiment [1] is T1, human T-type calcium channels (human Cav3.2) (Homo sapiens, UniProt O95180).
T1 construct: expressed in transfected cells
The experiment can be described thus: Intracellular calcium (Fura2 fluorescence) assay in HEK293 cells stably expressing human Cav3.2. The note with it: Fura2 fluorescence ratio after calcium chloride addition, 15 min with compound. The class given is cell-based. The procedure:
Representative compounds of the present invention were tested on the selective antagonistic effect against T-type calcium channels (Cav3.2) by way of the following Test Example. For each test, human embryonic kidney cells (HEK293 cells) in which human T-type calcium channels (human Cav3.2) were stably expressed were used.
HEK293 cells in which human Cav3.2 were stably expressed were cultured at 37° C. in Alpha-MEM containing 10% (v/v) fetal bovine serum (FBS), penicillin (100 U/mL), streptomycin (100 μg/mL) and G418 (250 μg/mL). The cells were suspended in the culture medium and seeded onto a 96-well plate, and then the cells were cultured for 24 hours. The culture medium was removed, and the culture medium was replaced with S-MEM containing 5% (v/v) FBS, calcium chloride (0.5 mmol/L), L-glutamine (2 mmol/L), L-alanine (8.9 ng/mL), L-asparagine (13.2 ng/mL), L-aspartic acid (1.33 ng/mL), L-glutamic acid (1.47 ng/mL), glycine (7.5 ng/mL), L-proline (11.5 ng/mL), L-serine (10.5 ng/mL), penicillin (100 U/mL), and streptomycin (100 μg/mL). The cells were cultured for another 24 hours. The culture medium was removed again, and the cells were washed with an assay buffer (140 mmol/L sodium chloride, 5 mmol/L potassium chloride, 0.5 mmol/L magnesium chloride, 0.5 mmol/L calcium chloride, 10 mmol/L glucose, 0.4 mmol/L magnesium sulfate, 10 mmol/L HEPES, and 250 μmol/L sulfinpyrazone, pH 7.4) that had been kept warm at 37° C. Subsequently, the assay buffer in which Fura2-AM, which is a fluorescent Ca^2+ indicator, was dissolved at 5 μM was added to the cells, and the cells were cultured at 37° C. for 30 minutes. The assay buffer containing dissolved Fura2 was removed, and the cells were washed with the assay buffer. Subsequently, the assay buffer to which a test compound had been added was added to the cells, and the cells were cultured for 15 minutes. The plate was placed in a fluorescence analyzer (Flex Station II, Molecular Devices, LLC), the baseline was measured, and then the change in the intracellular calcium concentration that was caused when an assay buffer containing 100 mmol/L calcium chloride was added, was measured (excited at 340 nm and 380 nm, and detected at 510 nm). Thus, the fluorescence intensity ratios obtainable at the respective wavelengths were calculated.
Meanwhile, the test compound solution was prepared by dissolving each of the test compounds in DMSO to a concentration of 10 mmol/L, and then adding the assay buffer to a predetermined concentration. As a control solution, DMSO was used instead of the test compounds.
The inhibitory effect value (%) of each test compound was calculated by subtracting the average value of the fluorescence intensity ratio for the period of 0 to 20 seconds after the initiation of measurement, from the average value of the fluorescence intensity ratio for the period of 45 to 50 seconds after the initiation of measurement, and comparing the activity in the presence of the test compound with the value in the control solution as the maximum activity of Cav3.2.
Curve fitting formula (Model 08: Sigmoidal Inhibition Curve, Vmax+Y2 to Y2) Y=Vmax×(1−(X^n/(K^n+X^n)))+Y2
% inhibition value=(RFU (compound)—RFU(LC))/(RFU (HC)−(RFU(LC))
HC: Average of RFU value for the period of 25 to 30 seconds after the addition of Ca^2+-containing assay buffer after the control solution treatment (for the period of 45 to 50 seconds after the initiation of measurement)
LC: Average of RFU value for the period of 25 to 30 seconds after the addition of non-Ca^2+-containing assay buffer after the control solution treatment (for the period of 45 to 50 seconds after the initiation of measurement)
The RFU in the formula represents the relative fluorescence unit.
A general note: Calcium assays in cells follow changes in intracellular calcium, usually with a dye or a luminescent sensor.

Experiment [2] concerns the target T1, human T-type calcium channels (human Cav3.2). The experiment in a line: Electrophysiological test (patch clamp method) in HEK293 cells stably expressing human Cav3.2. Conditions: auto-patch clamp, peak calcium current, holding potential -80 mV, pulse of -20 mV. It is filed as cell-based. The method, then: For each test, human embryonic kidney cells (HEK293 cells) in which human T-type calcium channels (human Cav3.2) were stably expressed were used.
HEK293 cells in which human Cav3.2 were stably expressed were cultured at 37° C. in Alpha-MEM containing 10% (v/v) fetal bovine serum (FBS), penicillin (100 U/mL), streptomycin (100 μg/mL) and G418 (250 μg/mL). The cells were dissociated by Accutase (Sigma-Aldrich Co.) treatment and were used as a suspension in the culture medium. The calcium current was measured with an auto-patch clamp system (Port-a-Patch, Nanion Technologies, GmbH), by using an internal solution (50 mmol/L CsCl, 10 mmol/L NaCl, 60 mmol/L CsF, 2 mmol/L MgCl2, 20 mmol/L EGTA, 10 mmol/L HEPES/CsOH, pH 7.2) and an external solution (80 mmol/L NaCl, 1 mmol/L TEAC1, 3 mmol/L KCl, 35 mmol/L CaCl2, 10 mmol/L MgCl2, 10 mmol/L HEPES, pH 7.2).
The inhibitory effect of the compound against the peak current was measured by fixing the holding potential at −80 mV, and applying a pulse of −20 mV to the cells at an interval of 5 seconds. The compound evaluation was carried out by sequentially replacing the external solution containing the compound (1 μmol/L, 3 μmol/L, 10 μmol/L, and 50 μmol/L), and measuring the current. The inhibition ratio was calculated from the peak current value, and the IC50 value was determined by converting the inhibition ratio according to a probit analysis, and then calculating the IC50 value from an approximation formula deduced by linear regression.

T1 sequence (O95180 whole entry): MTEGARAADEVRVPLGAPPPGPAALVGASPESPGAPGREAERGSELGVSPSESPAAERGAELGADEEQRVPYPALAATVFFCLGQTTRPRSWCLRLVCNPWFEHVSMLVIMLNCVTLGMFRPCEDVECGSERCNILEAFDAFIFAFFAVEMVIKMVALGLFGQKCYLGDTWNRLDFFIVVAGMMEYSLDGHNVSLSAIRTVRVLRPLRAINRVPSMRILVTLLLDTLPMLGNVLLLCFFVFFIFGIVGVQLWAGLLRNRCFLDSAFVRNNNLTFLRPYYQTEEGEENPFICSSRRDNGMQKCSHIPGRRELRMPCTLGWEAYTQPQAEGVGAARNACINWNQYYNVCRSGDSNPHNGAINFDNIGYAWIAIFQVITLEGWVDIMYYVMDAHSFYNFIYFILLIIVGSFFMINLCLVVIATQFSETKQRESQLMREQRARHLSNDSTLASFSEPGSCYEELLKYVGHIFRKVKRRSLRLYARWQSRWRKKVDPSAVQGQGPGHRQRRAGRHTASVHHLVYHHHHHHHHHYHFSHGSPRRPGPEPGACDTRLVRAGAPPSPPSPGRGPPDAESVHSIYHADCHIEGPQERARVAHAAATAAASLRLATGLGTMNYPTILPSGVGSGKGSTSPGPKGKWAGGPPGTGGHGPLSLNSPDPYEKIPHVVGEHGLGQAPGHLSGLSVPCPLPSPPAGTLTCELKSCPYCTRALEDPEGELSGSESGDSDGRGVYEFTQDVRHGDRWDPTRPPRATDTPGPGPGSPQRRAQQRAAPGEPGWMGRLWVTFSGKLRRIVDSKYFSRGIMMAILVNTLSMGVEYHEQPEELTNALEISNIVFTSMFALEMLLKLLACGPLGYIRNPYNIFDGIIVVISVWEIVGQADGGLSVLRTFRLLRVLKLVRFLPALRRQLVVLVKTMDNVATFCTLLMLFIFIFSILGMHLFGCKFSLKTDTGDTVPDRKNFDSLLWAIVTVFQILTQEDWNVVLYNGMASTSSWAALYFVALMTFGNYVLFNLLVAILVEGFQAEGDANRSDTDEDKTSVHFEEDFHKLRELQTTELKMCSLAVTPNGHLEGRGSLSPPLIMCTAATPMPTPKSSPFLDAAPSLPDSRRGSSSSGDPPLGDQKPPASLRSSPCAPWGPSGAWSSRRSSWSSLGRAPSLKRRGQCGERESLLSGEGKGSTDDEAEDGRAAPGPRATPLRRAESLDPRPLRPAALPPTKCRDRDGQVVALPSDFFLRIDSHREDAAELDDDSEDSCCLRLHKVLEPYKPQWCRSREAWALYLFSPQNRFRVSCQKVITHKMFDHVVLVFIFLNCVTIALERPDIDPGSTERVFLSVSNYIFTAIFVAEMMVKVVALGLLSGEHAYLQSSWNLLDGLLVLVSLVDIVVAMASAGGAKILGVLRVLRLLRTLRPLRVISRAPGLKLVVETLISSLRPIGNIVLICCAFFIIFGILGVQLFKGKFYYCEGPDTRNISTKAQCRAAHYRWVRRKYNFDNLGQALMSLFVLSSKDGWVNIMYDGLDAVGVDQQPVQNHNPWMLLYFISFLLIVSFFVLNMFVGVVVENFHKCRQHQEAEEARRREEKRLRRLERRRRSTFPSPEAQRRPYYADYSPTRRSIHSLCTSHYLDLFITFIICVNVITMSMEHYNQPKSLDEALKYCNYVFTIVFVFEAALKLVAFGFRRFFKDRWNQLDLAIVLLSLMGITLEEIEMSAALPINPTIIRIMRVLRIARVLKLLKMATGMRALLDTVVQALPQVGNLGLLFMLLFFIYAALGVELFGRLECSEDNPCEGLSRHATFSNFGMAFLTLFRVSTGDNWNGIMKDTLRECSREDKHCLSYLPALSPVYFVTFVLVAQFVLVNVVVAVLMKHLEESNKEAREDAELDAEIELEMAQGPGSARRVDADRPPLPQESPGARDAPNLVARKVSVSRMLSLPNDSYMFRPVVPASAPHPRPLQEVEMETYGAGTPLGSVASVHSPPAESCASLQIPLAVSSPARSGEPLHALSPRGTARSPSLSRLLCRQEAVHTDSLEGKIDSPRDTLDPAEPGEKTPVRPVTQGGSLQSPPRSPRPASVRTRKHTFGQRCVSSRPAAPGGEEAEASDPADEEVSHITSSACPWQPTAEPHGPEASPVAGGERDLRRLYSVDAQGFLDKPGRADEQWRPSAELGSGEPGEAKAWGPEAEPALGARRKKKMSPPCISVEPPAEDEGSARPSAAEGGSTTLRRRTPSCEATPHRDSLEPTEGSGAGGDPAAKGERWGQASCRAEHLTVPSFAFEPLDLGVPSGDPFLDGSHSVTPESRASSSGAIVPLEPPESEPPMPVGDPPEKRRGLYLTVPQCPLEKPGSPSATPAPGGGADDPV

For `OC(c1ccc(OC(F)(F)C(F)F)cc1)c1nc2cc(F)ccc2[nH]1` (stereo not shown) [Example 6], in experiment [1], the IC50 was 590 nM.

For `OC(c1ccc(OC(F)(F)F)cc1)c1nc2cccnc2[nH]1` (stereo not shown) [Example 49], the IC50 in experiment [1] worked out at 160 nM.

On to `OC(c1ccc(OC(F)(F)F)cc1)c1nc2cc(Cl)cnc2[nH]1` (stereo not shown) [Example 44, (6-Chloro-3H-imidazo[4,5-b]pyridin-2-yl)-(4-trifluoromethoxyphenyl)methanol], for which the IC50 in experiment [1] is 10 nM; in experiment [2], 1010 nM.

Turning to `COC(c1ccc(OC(F)(F)F)cc1)c1nc2cc(F)ccc2[nH]1` (stereo not shown) [Example 89], the IC50 in experiment [1] turned out to be 780 nM.

Regarding `CCOC(c1ccc(C(F)(F)F)cc1)c1nc2cc(F)ccc2[nH]1` (stereo not shown) [Example 27], in experiment [1], the half-inhibitory concentration (IC50) came to 920 nM.

Turning to `OC(c1ccc(C(F)(F)F)cc1)c1nc2cc(F)ccc2[nH]1` (stereo not shown) [Example 4], in experiment [1], the IC50 was 650 nM.

For the compound `OC(c1ccc(OC(F)(F)F)cc1)c1nc2cc(Br)ccc2[nH]1` (stereo not shown) [Example 112], in experiment [1], the 50% inhibitory concentration (IC50) is 370 nM.

For `OC(c1ccc(C(F)(F)F)c(F)c1)c1nc2cc(F)ccc2[nH]1` (stereo not shown) [Example 5], in experiment [1], the half-inhibitory concentration (IC50) was 210 nM.

For the compound `CCOC(c1ccc(OC(F)(F)F)cc1)c1nc2cc(C#N)ccc2[nH]1` (stereo not shown) [Example 115, 2-[Ethoxy(4-trifluoromethoxyphenyl)methyl]-1H-benzimidazole-5-carbonitrile], the IC50 in experiment [1] was 990 nM.

`CCOC(c1ccc2c(c1)OC(F)(F)O2)c1nc2cc(F)ccc2[nH]1` (stereo not shown) [Example 32]: in experiment [1], the IC50 worked out at 630 nM.

Take `CCOc1ccc2[nH]c(C(OCC)c3ccc(SC(F)(F)F)cc3)nc2c1` (stereo not shown) [Example 91]: in experiment [1], the 50% inhibitory concentration (IC50) was determined as 960 nM.

For `CCOC(c1ccc(OC(F)(F)F)cc1)c1nc2cc(Cl)cnc2[nH]1` (stereo not shown) [Example 53], the 50% inhibitory concentration (IC50) stood at 170 nM in experiment [1] and 1770 nM in experiment [2].

`N#Cc1ccc2[nH]c(C(O)c3ccc(OC(F)(F)F)cc3)nc2c1` (stereo not shown) [Example 114, 2-[Hydroxy(4-trifluoromethoxyphenyl)methyl]-1H-benzimidazole-5-carbonitrile]: in experiment [1], the IC50 was found to be 190 nM.

For `CCCSc1ccc2[nH]c(C(O)c3ccc(OC(F)(F)F)cc3)nc2c1` (stereo not shown) [Example 47], the concentration for half-maximal inhibition (IC50) in experiment [1] turned out to be 590 nM.

On to `OC(c1ccc(OC(F)(F)F)c(F)c1)c1nc2cc(F)ccc2[nH]1` (stereo not shown) [Example 12], for which the half-maximal inhibitory concentration (IC50) in experiment [1] worked out at 100 nM.

`CCOC(c1ccc(OCc2ccc(F)cc2)cc1)c1nc2cc(Cl)cnc2[nH]1` (stereo not shown) [Example 58]: the IC50 in experiment [1] is 700 nM.

On to `OC(c1ccc(OC(F)(F)F)cc1)c1nc2ccc(Cl)nc2[nH]1` (stereo not shown) [Example 46], for which, in experiment [1], the IC50 came to 220 nM.

On to `OC(c1ccc(OC(F)(F)F)cc1)c1nc2cc(F)ccc2[nH]1` (stereo not shown) [Example 1, (5-Fluoro-1H-benzimidazol-2-yl)-(4-trifluoromethoxyphenyl)methanol], for which the IC50 in experiment [1] amounted to 320 nM; in experiment [2], 1920 nM.

For the compound `OC(c1ccc2c(c1)OC(F)(F)O2)c1nc2cc(F)ccc2[nH]1` (stereo not shown) [Example 16], in experiment [1], the IC50 was 490 nM.

On to `CCOC(c1ccc(OC(F)(F)F)cc1)c1nc2cc(F)ccc2[nH]1` (stereo not shown) [Example 70, 2-[Ethoxy(4-trifluoromethoxyphenyl)methyl]-5-fluoro-1H-benzimidazole], for which the half-maximal inhibitory concentration (IC50) is 580 nM in experiment [1] and 1760 nM in experiment [2].

Turning to `OC(c1ccc2c(c1)OC(F)(F)O2)c1nc2cc(Cl)cnc2[nH]1` (stereo not shown) [Example 50], the IC50 in experiment [1] stood at 50 nM.

For the compound `OC(c1ccc(OC(F)(F)F)c(Br)c1)c1nc2cc(F)ccc2[nH]1` (stereo not shown) [Example 13], in experiment [1], the IC50 turned out to be 270 nM.

For `CCOC(c1ccc(OC(F)(F)F)c(F)c1)c1nc2cc(F)ccc2[nH]1` (stereo not shown) [Example 29], in experiment [1], the 50% inhibitory concentration (IC50) was found to be 370 nM.

Take `OC(c1ccc(SC(F)(F)F)cc1)c1nc2cc(F)ccc2[nH]1` (stereo not shown) [Example 3]: in experiment [1], the IC50 came out at 470 nM.
